Marks after values point to notes of the source that are not given here.
How the values were obtained:
[1] = system: cytidine deaminases; conditions: enzymatic degradation by cytidine deaminases, particularly in the small intestine; cited from earlier work
[2] = system: adult patients with MDS; assay: Randomized open-label controlled clinical study of decitabine plus supportive care in MDS patients; format: in vivo, human
Text: A randomized open-label, controlled clinical study at 23 sites evaluated 170 adult patients with MDS meeting French-American-British (FAB) classification and International Prognostic Scoring System (IPSS) High-Risk, Intermediate-2 and Intermediate-1 prognostic scores.
Eighty-nine patients were randomized to decitabine therapy plus supportive care (only 83 received drug), and 81 to Supportive Care (SC) alone. Patients with Acute Myeloid Leukemia (AML) were not intended to be included.
Decitabine was supplied as a lyophilized powder, 50 mg in 20 mL vials, for reconstitution and injection. Decitabine was reconstituted with 10 mL of Sterile Water for Injection USP to yield a solution of 5 mg/mL decitabine and 6.8 mg/mL KH2PO4. The reconstituted solution was further diluted for intravenous infusion with prechilled (2-8° C.) 0.9% Sodium Chloride solution USP. To slow degradation of study drug, infusion solution was refrigerated at 2-8° C. until administration, for a maximum of 10 hours.
Patients randomized to the decitabine arm received decitabine intravenously infused at a dose of 15 mg/m^2 over a three-hour period, every eight hours, for 3 consecutive days (1 cycle). Each administration of decitabine at a dose of 15 mg/m^2 infused over a three-hour period was a continuous infusion without changing the infusion bag. The total amount of decitabine per day was 45 mg/m^2; the total dose per cycle was 135 mg/m^2. […] For patients with inadequate counts 6 weeks after treatment, the study protocol specified that blood counts be repeated at least weekly during the following two-week interval, and that a reduced-dose cycle (11 mg/m^2 over a three-hour period, every eight hours, for 3 consecutive days) was to be administered if blood counts recovered to within acceptable limits (as defined above) between week 6 and 8.
Delayed myelotoxicity, with a neutrophil nadir reached between about day 18-24, is the primary toxicity of decitabine. Cytopenias, however, are also a hallmark of the MDS disease process, making it difficult to distinguish between treatment-related neutropenia and disease progression. Accordingly, the protocol required that patients showing persistent neutropenia (ANC <1,000/μL) or thrombocytopenia (platelets <50,000/μL) beyond 8 weeks following a decitabine cycle undergo bone marrow aspiration and biopsy. Upon a finding of no disease progression (i.e. only bone marrow aplasia), blood counts were to be monitored for an additional two weeks, and a reduced-dose cycle (as defined above) was to be administered if blood counts recovered to within acceptable limits (as defined above) during weeks 8-10. Patients showing neutropenia or thrombocytopenia beyond 10 weeks were to receive no further decitabine treatment.
Supportive care consisted of blood and blood product transfusions, prophylactic antibiotics, and hematopoietic growth factors. Co-primary endpoints of the study were overall response rate (CR+PR) and time to AML or death. Responses were classified with the MDS International Working Group (IWG) criteria; patients were required to be RBC and platelet transfusion independent during the time of response.

[3] = ITT, N = 89, 15 mg/m^2 3 hr iv infusion every 8 hrs for 3 days
[4] = ITT, N = 89, listed as decitabine
[5] = patients evaluable for response (confirmed MDS at baseline, at least 2 courses)
[6] = patients with adjudicated baseline diagnosis of AML
[7] = patients with cytogenetic abnormalities, MDS IWG criteria

Compound: Nc1ncn([C@H]2C[C@H](O)[C@@H](CO)O2)c(=O)n1 [Decitabine, 5-aza-2′-deoxycytidine]
- Oral bioavailability [1]: reduced oral bioavailability
- Response by IPSS Classification (CR + PR) ([2]; High Risk): (13%)
- Response by IPSS Classification (CR + PR), responders/patients ([2]; High Risk): 3/23
- Median Duration of (CR + PR + HI) response ([2]; ITT): 253 days
- Median time to (CR + PR + HI) response ([2]; ITT): 44 days
- Complete Response (CR) ([2]; ITT, N = 89): (9%)
- Complete Response (CR), number of patients ([2]; ITT, N = 89): 8
- Hematologic Improvement (HI) ([2]; ITT, N = 89): (12%)
- Hematologic Improvement (HI), number of patients ([2]; ITT, N = 89): 11
- Overall Improvement Rate (CR + PR + HI) ([2]; ITT, N = 89): (29%)**
- Overall Improvement Rate (CR + PR + HI), number of patients ([2]; ITT, N = 89): 26
- Partial Response (PR) ([2]; ITT, N = 89): (8%)
- Partial Response (PR), number of patients ([2]; ITT, N = 89): 7
- Overall Response Rate (CR + PR) [2, 3]: 17%
- Overall Response Rate (CR + PR), number of patients [2, 3]: 15
- Hematologic Improvement (HI) [2, 4]: 12%
- Overall Improvement Rate (CR + PR + HI) [2, 4]: 29%
- Response by IPSS Classification (CR + PR) ([2]; Int-1): (14%)
- Response by IPSS Classification (CR + PR), responders/patients ([2]; Int-1): 4/28
- Response by IPSS Classification (CR + PR) ([2]; Int-2): (21%)
- Response by IPSS Classification (CR + PR), responders/patients ([2]; Int-2): 8/38
- Patients who became transfusion independent ([2]; RBC transfusion dependent at baseline): 39%
- RBC and platelet transfusion status of responders ([2]; all 15 responders, in the absence of growth factors): remained or became RBC and platelet transfusion independent
- Quality of Life assessment (EORTC scale) ([2]; baseline, end of each treatment cycle and post-treatment): less dyspnea, less fatigue and better physical functioning and global health status
- Median time to AML or death ([2]; decitabine arm, p=0.160, ns vs SC): 340 days
- Cycle by which all responders had responded ([2]; decitabine patients who responded): by the fourth cycle
- Median Duration of (CR + PR) response ([2]; decitabine responders): 266 days
- Median time to (CR + PR) response ([2]; decitabine responders): 89 days
- Overall response rate [2, 5]: 21%
- Overall response rate, responders/patients [2, 5]: 12/56
- Objective response (CR or PR) [2, 6]: 56%
- Objective response (CR or PR), responders/patients [2, 6]: 5/9
- Major cytogenetic responses [2, 7]: 21%
- Major cytogenetic responses, responders/patients [2, 7]: 10/48
- Minor cytogenetic response, number of patients [2, 7]: one
- Patients who became transfusion dependent ([2]; transfusion independent at baseline): 15%

From patent publication US20070105792A1, “Administration Of DNA Methylation Inhibitors For Treating Epigenetic Diseases” (priority 2005, published 2007)
